According to the supplement of paper PMC10307832:

Tests used:
Experiment in all cases: relative viability (nuclei count vs DMSO), 5 days (fraction); higher = more cells survive
KN-93 + Crizotinib = compound: CN(C/C=C/C1=CC=C(C=C1)Cl)CC2=CC=CC=C2N(CCO)S(=O)(=O)C3=CC=C(C=C3)OC [KN-93] + C[C@@H](Oc1cc(-c2cnn(C3CCNCC3)c2)cnc1N)c1c(Cl)ccc(F)c1Cl [Crizotinib] (partner 1 µM)
Outline: (§1)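 Nuclei were stained with Hoechst during a one-step fixation (final 0.05% Triton X-100, 1% formaldehyde, 1 ug/ml Hoechst) carried out 5 days after dosing, then counted on 4× images. The cells, lung cancer lines in 1536-well plates, had been dosed by pin tool the day after seeding with one drug alone or a fixed anchor-drug dose plus five library-drug doses (not always all listed) in √10 steps. Relative viability is the nuclei count in treated wells divided by that in vehicle wells, and each value is the median of duplicate plates.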

KN-93 + Alpelisib = compound: CN(C/C=C/C1=CC=C(C=C1)Cl)CC2=CC=CC=C2N(CCO)S(=O)(=O)C3=CC=C(C=C3)OC [KN-93] + Cc1nc(NC(=O)N2CCC[C@H]2C(N)=O)sc1-c1ccnc(C(C)(C)C(F)(F)F)c1 [Alpelisib] (partner 2 µM)
Outline: as §1

KN-93 + Linsitinib = compound: CN(C/C=C/C1=CC=C(C=C1)Cl)CC2=CC=CC=C2N(CCO)S(=O)(=O)C3=CC=C(C=C3)OC [KN-93] + C[C@]1(O)C[C@@H](c2nc(-c3ccc4ccc(-c5ccccc5)nc4c3)c3c(N)nccn32)C1 [Linsitinib] (partner 1 µM)
Outline: as §1

KN-93 + Pictilisib = compound: CN(C/C=C/C1=CC=C(C=C1)Cl)CC2=CC=CC=C2N(CCO)S(=O)(=O)C3=CC=C(C=C3)OC [KN-93] + CS(=O)(=O)N1CCN(Cc2cc3nc(-c4cccc5[nH]ncc45)nc(N4CCOCC4)c3s2)CC1 [Pictilisib] (partner 1 µM)
Outline: as §1

KN-93 + Bortezomib = compound: CN(C/C=C/C1=CC=C(C=C1)Cl)CC2=CC=CC=C2N(CCO)S(=O)(=O)C3=CC=C(C=C3)OC [KN-93] + CC(C)C[C@H](NC(=O)[C@H](Cc1ccccc1)NC(=O)c1cnccn1)B(O)O [Bortezomib] (partner 0.002 µM)
Outline: as §1

Cell Line | relative viability (KN-93 + Crizotinib; first compound 0.08 µM) | relative viability (KN-93 + Crizotinib; first compound 0.253 µM) | relative viability (KN-93 + Crizotinib; first compound 2.53 µM) | relative viability (KN-93 + Crizotinib; first compound 8 µM) | relative viability (KN-93 + Alpelisib; first compound 0.08 µM) | relative viability (KN-93 + Alpelisib; first compound 0.253 µM) | relative viability (KN-93 + Alpelisib; first compound 2.53 µM) | relative viability (KN-93 + Alpelisib; first compound 8 µM) | relative viability (KN-93 + Linsitinib; first compound 0.08 µM) | relative viability (KN-93 + Linsitinib; first compound 0.253 µM) | relative viability (KN-93 + Linsitinib; first compound 2.53 µM) | relative viability (KN-93 + Linsitinib; first compound 8 µM) | relative viability (KN-93 + Pictilisib; first compound 0.08 µM) | relative viability (KN-93 + Pictilisib; first compound 0.253 µM) | relative viability (KN-93 + Pictilisib; first compound 2.53 µM) | relative viability (KN-93 + Pictilisib; first compound 8 µM) | relative viability (KN-93 + Bortezomib; first compound 0.08 µM) | relative viability (KN-93 + Bortezomib; first compound 0.253 µM) | relative viability (KN-93 + Bortezomib; first compound 2.53 µM) | relative viability (KN-93 + Bortezomib; first compound 8 µM)
201T | 1.01 | 1.05 | 1.01 | 0.973 | 1.17 | 0.966 | 1.01 | 0.935 | 1.04 | 0.968 | 0.995 | 0.837 | 0.756 | 0.583 | 0.672 | 0.63 | 1.11 | 1.15 | 1.07 | 0.554
A549 | 0.847 | 1.05 | 0.944 | 0.28 | 0.717 | 0.914 | 0.849 | 0.546 | 0.519 | 0.722 | 0.746 | 0.476 |  | 0.609 | 1 | 0.225 |  |  |  | 
A-427 | 0.852 | 0.943 | 0.798 | 0.436 | 1.07 | 1.18 | 1.08 | 0.975 | 1.1 | 1.2 | 1.13 | 0.965 | 0.732 | 0.69 | 0.635 | 0.512 | 1.04 | 0.99 | 0.982 | 0.852
ABC-1 | 1.05 | 1.28 | 0.498 | 0.219 | 0.893 | 1.27 | 1.13 | 0.715 | 0.889 | 0.717 | 0.727 | 0.362 | 0.638 | 0.721 | 0.738 | 0.264 | 0.322 | 0.247 | 0.287 | 0.26
BEN |  | 1.13 | 1.02 | 0.67 |  | 1.37 | 1.06 | 0.806 |  | 1.31 | 1.03 | 0.786 |  | 0.549 | 0.618 | 0.381 |  | 0.895 | 1.01 | 0.471
CAL-12T | 0.623 | 0.834 | 0.531 | 0.339 | 0.859 | 1.44 | 1.57 | 1.06 | 0.926 | 0.766 | 0.694 | 0.729 | 0.498 | 0.367 | 0.605 | 0.326 | 1.02 | 1.09 | 0.993 | 0.803
COR-L23 | 0.697 | 0.764 | 0.673 | 0.455 | 0.743 | 1.01 | 0.745 | 0.601 | 0.683 | 1.07 | 0.887 | 0.577 | 0.796 | 0.892 | 0.997 | 0.414 | 0.653 | 1.5 | 1.21 | 0.573
COR-L 105 | 0.696 | 0.873 | 0.807 | 0.436 | 0.866 | 0.991 | 0.918 | 0.74 | 0.811 | 0.878 | 1.15 | 0.784 | 0.413 | 0.354 | 0.388 | 0.29 | 0.798 | 0.836 | 0.914 | 0.378
ChaGo-K-1 | 1.12 | 1.23 | 1.11 | 0.722 |  |  |  |  |  |  |  |  | 1.27 | 0.851 | 0.718 | 0.454 | 1.33 | 1.18 | 1.15 | 0.536
EKVX | 0.642 | 0.995 | 0.81 | 0.719 | 0.728 | 0.845 | 1.02 | 0.692 | 0.959 | 0.872 | 1.03 | 0.748 | 0.396 | 0.329 | 0.437 | 0.39 | 0.81 | 1.33 | 1.26 | 0.389
EMC-BAC-2 | 0.773 | 0.792 | 0.772 | 0.573 | 0.683 | 0.732 | 0.928 | 0.676 | 0.821 | 1 | 0.878 | 0.775 | 0.477 | 0.608 | 0.542 | 0.433 | 0.908 | 1.12 | 1.12 | 0.58
EPLC-272H | 1.05 | 1.01 | 1.04 | 0.661 | 0.947 | 1.02 | 1.04 | 0.792 | 1.15 | 1.27 | 1.21 | 0.871 | 0.338 | 0.365 | 0.294 | 0.276 | 0.863 | 1.39 | 0.982 | 0.752
H3255 | 0.995 | 0.952 | 0.48 | 0.623 | 0.664 | 0.788 | 0.631 | 0.532 | 0.802 | 1.09 | 1.08 | 0.584 | 0.422 | 0.527 | 0.492 | 0.391 | 0.906 | 0.865 | 0.91 | 0.578
HARA | 1.04 | 1.51 | 0.946 | 0.51 | 0.811 | 0.775 | 0.705 | 0.471 | 0.84 | 1.11 | 0.923 | 0.527 | 0.366 | 0.36 | 0.3 | 0.2 | 1.01 | 1.08 | 1.24 | 0.836
HCC-15 | 0.664 | 0.961 | 0.795 | 0.682 | 0.816 | 1.09 | 0.884 | 0.744 | 0.85 | 1 | 0.802 | 0.728 | 0.547 | 0.866 | 0.861 | 0.524 | 0.838 | 1.27 | 1.17 | 0.634
HCC-44 | 0.732 | 0.785 | 0.858 | 0.502 | 0.775 | 0.746 | 0.99 | 0.549 | 0.616 | 0.613 | 0.667 | 0.462 | 0.728 | 0.569 | 0.503 | 0.398 | 0.834 | 0.801 | 1.03 | 0.751
